The values that follow are results of earlier work, collected in patent publication US9750827B2, “Near-infrared dye-conjugated hyaluronic acid derivative and contrast agent for optical imaging including them” (CANON KABUSHIKI KAISHA, priority 2013, dated 2017).

The conditions of the series: known in the art.

Consider `CC1(C)C(/C=C/C=C/C=C/C=C2/N(CCCCS(=O)(=O)[O-])c3ccc4ccccc4c3C2(C)C)=[N+](CCCCS(=O)(=O)[O-])c2ccc3ccccc3c21.[Na+]` [ICG, indocyanine green], for which the half-life in blood result is “about several minutes”.
